Laboratory results reported in ChEMBL document CHEMBL1201862, “PubChem BioAssay data set” (2004).
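A five-concentration, 48-hour dose response in 96-well plates underlies each endpoint, interpolated linearly between surrounding concentrations. At the GI50, growth is halved.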 Active and inactive are the calls of the source. Rule as the data show it: active = GI50 up to about 1.1 µM and inactive = higher.

Assays:
Test in all cases: DTP human tumour cell line panel, 48 h
HOP-62 = system: HOP-62
MOLT-4 = system: MOLT-4
SW-620 = system: SW-620
MDA-N = system: MDA-N
COLO 205 = system: COLO 205
SR = system: SR
UO-31 = system: UO-31
MCF7 = system: MCF7
EKVX = system: EKVX
HT-29 = system: HT-29
BT-549 = system: BT-549
Hs-578T = system: Hs-578T
HOP-92 = system: HOP-92
SF-539 = system: SF-539
NCI-H23 = system: NCI-H23
Malme-3M = system: Malme-3M
NCI-H226 = system: NCI-H226
SK-MEL-28 = system: SK-MEL-28

Measured: GI50

COc1c(C)c(C/C=C(\C)CCCCO)c(OC)c(OC)c1OC
inactive: HOP-62 > 100 µM | MOLT-4 73.6 µM | SW-620 > 100 µM | MDA-N > 100 µM | COLO 205 > 100 µM | SR 95.7 µM | UO-31 > 100 µM | MCF7 > 100 µM | EKVX > 100 µM | HT-29 > 100 µM | BT-549 > 100 µM | Hs-578T > 100 µM | HOP-92 > 100 µM | SF-539 > 100 µM | NCI-H23 > 100 µM

C=C(C)C1CC2(C)C(C)CC(O)CC2C(OC(=O)C=C(C)C)C1O (stereo not drawn)
inactive: MOLT-4 18.1 µM | SW-620 > 10 µM | Malme-3M 45.6 µM | MDA-N 36.4 µM | COLO 205 16.3 µM | SR 17.8 µM | UO-31 24.4 µM | MCF7 29.6 µM | EKVX 34.8 µM | HT-29 24.4 µM | BT-549 42.4 µM | SK-MEL-28 51.2 µM | Hs-578T 27.1 µM | HOP-92 23.2 µM | SF-539 30.9 µM | NCI-H23 30.3 µM
active: NCI-H226 0.933 µM

[N-]=[N+]=C(C(=O)C(=[N+]=[N-])C(=O)c1ccccc1)C(=O)c1ccccc1
inactive: HOP-62 > 100 µM | SW-620 > 100 µM | Malme-3M > 100 µM | MDA-N > 100 µM | COLO 205 > 100 µM | UO-31 65.5 µM | MCF7 > 100 µM | EKVX > 100 µM | HT-29 > 100 µM | BT-549 > 100 µM | SK-MEL-28 > 100 µM | Hs-578T > 100 µM | SF-539 > 100 µM | NCI-H23 > 100 µM

Cc1ccc(/C=C2\CN(C)CC3C(c4ccc(C)cc4)=C(C#N)C(=O)NC23)cc1 (stereo not drawn)
inactive: HOP-62 > 50 µM | MOLT-4 > 50 µM | SW-620 > 50 µM | Malme-3M > 50 µM | MDA-N > 50 µM | COLO 205 > 50 µM | NCI-H226 > 50 µM | MCF7 > 50 µM | EKVX > 50 µM | HT-29 > 50 µM | BT-549 > 50 µM | SK-MEL-28 > 50 µM | Hs-578T > 50 µM | HOP-92 29.3 µM | NCI-H23 > 50 µM

CN(C)CCCNc1ccc2nnn3c4ccc(OC(=O)c5ccccc5)cc4c(=O)c1c23
inactive: HOP-62 5.92 µM | SW-620 4.53 µM | Malme-3M 11.5 µM | MDA-N 13.8 µM | COLO 205 14 µM | UO-31 4.14 µM | MCF7 6.07 µM | EKVX 4.24 µM | HT-29 3.71 µM | BT-549 16.8 µM | SK-MEL-28 15.8 µM | Hs-578T 18.3 µM | HOP-92 12.6 µM | SF-539 6.76 µM | NCI-H23 13.4 µM
active: MOLT-4 0.192 µM | SR 0.697 µM

CC(C)(C)OC(=O)NC(Cc1ccc(OCc2ccccc2)cn1)C(=O)N1CCCCC1 (stereo not drawn)
inactive: HOP-62 49.9 µM | MOLT-4 19.5 µM | SW-620 89.3 µM | Malme-3M 40.5 µM | MDA-N 28.1 µM | COLO 205 18.6 µM | SR 28.6 µM | UO-31 27.9 µM | MCF7 31.6 µM | EKVX 37.1 µM | HT-29 32 µM | BT-549 24.5 µM | SK-MEL-28 54.3 µM | Hs-578T 67.3 µM | HOP-92 39.9 µM | SF-539 41.3 µM | NCI-H23 31.1 µM

COP(=O)(OC)C(C)(C)NC(=O)NC(F)(F)F
inactive: HOP-62 > 100 µM | MOLT-4 > 100 µM | SW-620 > 100 µM | Malme-3M > 100 µM | MDA-N > 100 µM | COLO 205 > 100 µM | NCI-H226 22.2 µM | SR > 100 µM | UO-31 > 100 µM | MCF7 > 100 µM | EKVX > 100 µM | HT-29 > 100 µM | BT-549 > 100 µM | SK-MEL-28 > 100 µM | Hs-578T 31.1 µM | SF-539 > 100 µM | NCI-H23 > 100 µM

CCOC(=O)C1CCC(=O)N1C(=O)c1cccc(Cl)c1 (stereo not drawn)
inactive: HOP-62 > 100 µM | MOLT-4 > 100 µM | SW-620 > 100 µM | Malme-3M > 100 µM | MDA-N > 100 µM | NCI-H226 > 100 µM | SR > 100 µM | UO-31 > 100 µM | MCF7 > 100 µM | EKVX > 100 µM | HT-29 > 100 µM | BT-549 > 100 µM | SK-MEL-28 > 100 µM | Hs-578T > 100 µM | HOP-92 > 100 µM | SF-539 > 100 µM | NCI-H23 > 100 µM

CCNC1=C(NC(=O)c2ccccc2)C(=O)c2ccccc2C1=O
inactive: HOP-62 66.2 µM | MOLT-4 63.4 µM | SW-620 23.4 µM | Malme-3M 16.8 µM | MDA-N 4.9 µM | COLO 205 16.6 µM | NCI-H226 27.9 µM | SR 40.2 µM | MCF7 32.1 µM | HT-29 36.6 µM | BT-549 90.4 µM | SK-MEL-28 39.3 µM | Hs-578T 38.7 µM | HOP-92 55.6 µM | SF-539 48.8 µM | NCI-H23 36.7 µM

CCOC(=O)O/N=C1/C(=C2/C(=O)Nc3ccccc32)Nc2ccccc21
inactive: HOP-62 6.81 µM | MOLT-4 3.74 µM | SW-620 5.21 µM | Malme-3M 10 µM | MDA-N 3.91 µM | COLO 205 15.5 µM | SR 3.61 µM | UO-31 3.65 µM | MCF7 3.69 µM | EKVX 2.54 µM | HT-29 10.1 µM | BT-549 7.31 µM | SK-MEL-28 10.9 µM | Hs-578T 2.9 µM | HOP-92 22.3 µM | NCI-H23 4.47 µM

O=S1(=O)CCN(Cc2ccccn2)CC1
inactive: HOP-62 > 100 µM | SW-620 > 100 µM | Malme-3M > 100 µM | MDA-N > 100 µM | COLO 205 > 100 µM | NCI-H226 > 100 µM | SR > 100 µM | UO-31 > 100 µM | MCF7 > 100 µM | EKVX > 100 µM | HT-29 > 100 µM | BT-549 > 100 µM | SK-MEL-28 > 100 µM | Hs-578T > 100 µM | HOP-92 > 100 µM | SF-539 > 100 µM | NCI-H23 > 100 µM

CC1=C(C)C2(C#N)C(=O)N3C(=NC(c4ccccc4)NC3c3ccccc3)C2(C#N)C(c2ccccc2)N1 (stereo not drawn)
inactive: HOP-62 > 100 µM | MOLT-4 > 100 µM | SW-620 > 100 µM | Malme-3M > 100 µM | MDA-N > 100 µM | COLO 205 > 100 µM | NCI-H226 > 100 µM | SR > 100 µM | UO-31 > 100 µM | MCF7 > 100 µM | EKVX > 100 µM | HT-29 > 100 µM | BT-549 > 100 µM | SK-MEL-28 > 100 µM | Hs-578T > 100 µM | HOP-92 > 100 µM | NCI-H23 > 100 µM

CC1=NC(=Cc2ccc([N+](=O)[O-])cc2)C(=O)N1n1c(-c2ccccc2)nc2ccccc2c1=O
inactive: HOP-62 60.1 µM | MOLT-4 28.8 µM | SW-620 36.7 µM | Malme-3M 53.7 µM | MDA-N 49 µM | COLO 205 46.6 µM | NCI-H226 95.9 µM | SR 35.2 µM | UO-31 31.6 µM | MCF7 29.1 µM | EKVX 45.5 µM | HT-29 37 µM | BT-549 85.3 µM | SK-MEL-28 57.9 µM | Hs-578T 50.2 µM | SF-539 67.3 µM | NCI-H23 21.8 µM

COC(=O)c1ccccc1C1CN=NC12Cc1ccc3ccccc3c1C2=O (stereo not drawn)
inactive: MOLT-4 57.3 µM | SW-620 > 100 µM | Malme-3M 30.8 µM | MDA-N > 100 µM | COLO 205 > 100 µM | NCI-H226 > 100 µM | SR 36.5 µM | UO-31 > 100 µM | MCF7 > 100 µM | EKVX > 100 µM | BT-549 > 100 µM | SK-MEL-28 > 100 µM | Hs-578T 94.4 µM | HOP-92 97.9 µM | SF-539 73.8 µM

FC1(F)ON2CCc3ccccc3C2[C@H]1c1ccccc1 (stereo partly drawn)
inactive: HOP-62 90.4 µM | MOLT-4 > 10 µM | SW-620 > 10 µM | Malme-3M 2.22 µM | MDA-N > 10 µM | COLO 205 > 10 µM | NCI-H226 35.8 µM | SR > 10 µM | UO-31 > 100 µM | MCF7 > 10 µM | EKVX > 10 µM | HT-29 > 10 µM | BT-549 > 10 µM | SK-MEL-28 > 10 µM | Hs-578T 4.25 µM | SF-539 91.8 µM | NCI-H23 > 10 µM

NC(=O)NCCCC(NC(=O)OCCCCCn1ccc(=O)[nH]c1=O)C(=O)O (stereo not drawn)
inactive: HOP-62 > 100 µM | MOLT-4 > 100 µM | SW-620 > 100 µM | MDA-N > 100 µM | COLO 205 > 100 µM | NCI-H226 63.2 µM | SR > 100 µM | UO-31 > 100 µM | MCF7 > 100 µM | EKVX > 100 µM | HT-29 > 100 µM | BT-549 > 100 µM | SK-MEL-28 > 100 µM | Hs-578T > 100 µM | HOP-92 > 100 µM | SF-539 > 100 µM | NCI-H23 > 100 µM

Cc1cc(N2CCN(C)CC2)n2nc(-c3ccc(Cl)cc3)nc2n1
inactive: HOP-62 > 100 µM | MOLT-4 34.8 µM | SW-620 > 100 µM | Malme-3M > 100 µM | MDA-N 92.9 µM | COLO 205 81.7 µM | NCI-H226 > 100 µM | SR 17.7 µM | MCF7 > 100 µM | EKVX 80.5 µM | HT-29 69.5 µM | BT-549 99.1 µM | SK-MEL-28 91.8 µM | Hs-578T > 100 µM | HOP-92 > 100 µM | SF-539 75 µM | NCI-H23 > 100 µM
